Data published in patent US8877814B2, “Titration package for neramexane and its use in the treatment of an inner ear disorder” (Merz Pharma GmbH & Co. KGaA, priority 2007, dated 2014).

Experiments:
[1] = test system: patients afflicted with various degrees of hearing loss; experiment: Double blind placebo controlled pilot trial of neramexane for treatment of hearing loss; type: in vivo, human; conditions: neramexane mesylate up to 75 mg/d, compared to the placebo group
Method: A hearing threshold level may be defined as the average of the pure tone hearing threshold levels at testing frequencies of 0.25, 0.5, 1, 2 and 4 kHz.
The primary objective of this study is to investigate the safety and efficacy of neramexane mesylate at daily doses of up to 75 mg in the treatment of hearing loss in comparison to placebo.
Neramexane mesylate (or placebo) is uptitrated to a maximum daily dose of 75 mg, starting with a daily dose of 25 mg for one week, and increasing dosage in 25 mg steps at weekly intervals.
Treatment is started in the evening of study day 1. The daily starting dose is 25 mg neramexane mesylate per dose to be taken for 7 days at bedtime. […]
Primary Outcome • Change from baseline in hearing threshold level of left/right ear (dB) calculated as average of the pure tone hearing level threshold levels at 0.25, 0.5, 1, 2 and 4 kHz.
Secondary Outcomes • Change from baseline in high frequency hearing threshold of left/right ear (dB) calculated as average of the pure tone hearing threshold levels at 4, 6, 8 and 10 kHz • Change from baseline in individual frequencies (hearing thresholds) on a pure tone audiogram (air conduction) • Number of Responder • Patient-reported outcome on a 11-point Likert-Scale (0=hearing is not a problem, 10=hearing is a problem as much as possible) • Change in hearing impairment based on the hearing threshold level: […]

α 9/α 10 nicotinic = α 9/α 10 nicotinic (Rattus norvegicus, UniProt P43144+Q9JLB5); conditions: Plazas et al., Eur J. Pharmacol. 2007; cited from earlier work
5-HT3 receptors = conditions: cited from earlier work
[2] = test system: subjects with subjective tinnitus of at least moderate severity; experiment: Double blind placebo controlled pilot trial of neramexane for tinnitus: treatment emergent adverse events leading to drop-out
Method: The primary objective of this study was to compare the efficacy, tolerability and safety of neramexane mesylate at three different dosages (25, 50 or 75 mg/d) with placebo in subjects with subjective tinnitus of at least moderate severity.
In a double-blind, multicenter, randomized, placebo-controlled, parallel-group study, the efficacy of neramexane in subjects suffering from tinnitus of at least moderate severity was assessed. Approximately 100 patients, who fulfilled particular inclusion criteria and met none of particular exclusion criteria, were randomized to each of four double-blind treatment groups (neramexane mesylate 25, 50, 75 mg/d or placebo), resulting in approximately 400 patients in total.
The double-blind, 16-week treatment period consisted of a 4-week uptitration period and a 12-week fixed-dose treatment period at unchanged maintenance b.i.d. dosing. In case of poor tolerability, however, the investigator could consider a dose reduction by 25 mg/d (or placebo, respectively). […] In total, this study involved seven study visits: screening, baseline, and at the end of weeks 4, 8, 12, 16, and 20. (Participants received either neramexane mesylate (e.g. 50 mg, as 25 mg immediate release tablets given twice daily) or placebo twice daily for 16 weeks. Neramexane mesylate was uptitrated in weekly steps of 12.5 or 25 mg during a 4-week uptitration period preceding the fixed-dose 12-week treatment period. Treatment was followed by a four week follow-up period.)
Neramexane mesylate immediate release tablets (12.5 mg and 25 mg) and matching placebo tablets were administered as film coated tablets.
Study medication was dispensed at Visit 2 (baseline, day 0). Each patient received one blister box containing 5 blister cards (including one reserve blister) of double-blind study medication (i.e., 32 tablets). Subjects were instructed to take 2 tablets twice daily (4 tablets/d), beginning the day after dispensing of the study medication, until they returned for their next study visit (Visit 3). For those subjects assigned to receive active medication, some placebo tablets were incorporated into the dosing regimen to ensure blinding during the uptitration period. The target fixed-maintenance dose of 25, 50, or 75 mg/d was administered starting with the fifth week of double-blind treatment and was continued throughout the study. At each of the subsequent visits (Visits 3, 4, and 5, corresponding to end of week 4, 8 and 12) patients received another blister box containing 5 blister cards for the 4 week intervals, with double-blind medication for the intervening treatment period until the next study visit.
In case of poor tolerability the investigator could consider a dose reduction of 25 mg/d by omitting the bigger tablet in the morning which constituted an effective dose reduction only in the 75 mg/d and 50 mg/d neramexane mesylate groups. After omitting the bigger tablet (25 mg or placebo, respectively) of the morning dose, these patients could then continue the course of the study as scheduled, while receiving only one smaller tablet as the morning dose (12.5 mg or placebo, respectively) and 2 tablets of different sizes (12.5 mg, 25 mg or placebo, respectively) as the evening dose. The dose was to be kept stable until the end of the study.

Chain of α 9/α 10 nicotinic (P43144 26-479): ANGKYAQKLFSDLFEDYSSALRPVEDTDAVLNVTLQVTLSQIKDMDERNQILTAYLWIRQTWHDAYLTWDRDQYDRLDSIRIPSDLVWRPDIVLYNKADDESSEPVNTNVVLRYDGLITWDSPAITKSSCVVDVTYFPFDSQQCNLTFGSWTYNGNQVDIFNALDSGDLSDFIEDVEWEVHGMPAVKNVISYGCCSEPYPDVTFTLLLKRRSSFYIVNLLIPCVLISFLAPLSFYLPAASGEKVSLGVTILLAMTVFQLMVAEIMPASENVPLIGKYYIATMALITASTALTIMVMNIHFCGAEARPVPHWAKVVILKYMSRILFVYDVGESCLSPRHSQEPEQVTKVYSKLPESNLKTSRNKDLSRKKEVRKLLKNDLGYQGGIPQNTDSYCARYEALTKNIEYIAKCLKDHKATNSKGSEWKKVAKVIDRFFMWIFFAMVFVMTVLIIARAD
Chain of α 9/α 10 nicotinic (Q9JLB5 25-447): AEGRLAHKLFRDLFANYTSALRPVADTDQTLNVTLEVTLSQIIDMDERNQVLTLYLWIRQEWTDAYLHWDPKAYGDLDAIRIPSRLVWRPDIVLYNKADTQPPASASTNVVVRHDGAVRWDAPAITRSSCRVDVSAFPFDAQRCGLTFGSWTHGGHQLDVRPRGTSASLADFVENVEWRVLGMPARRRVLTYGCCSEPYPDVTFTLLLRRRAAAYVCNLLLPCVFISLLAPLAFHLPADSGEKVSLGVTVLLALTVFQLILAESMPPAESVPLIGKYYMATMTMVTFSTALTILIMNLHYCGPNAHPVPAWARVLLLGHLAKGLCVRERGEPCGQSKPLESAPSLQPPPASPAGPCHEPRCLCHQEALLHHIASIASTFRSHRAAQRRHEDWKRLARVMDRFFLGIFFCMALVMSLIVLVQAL

For `CC1(C)CC(C)(C)CC(C)(N)C1` [Neramexane, 1-amino-1,3,3,5,5-pentamethylcyclohexane], the “Primary outcome: change from baseline in hearing threshold level” value [1] is listed as “improvement”, the “Secondary outcomes (e.g. change from baseline in different frequencies on a pure tone audiogram)” value [1] is listed as “improvement” and the “activity at the α 9/α 10 nicotinic receptors” value (α 9/α 10 nicotinic) is listed as “exhibit activity”. For the same compound, the “activity at 5-HT3 receptors” value (5-HT3 receptors) was “exhibit activity”, the “Any adverse event leading to drop-out, % of patients” value ([2]; 25 mg/d, N = 108, EFS) was “(8.3) %” and the “Any adverse event leading to drop-out, n (number of patients)” value (from here on “Any adverse event leading to drop-out, n”) ([2]; 25 mg/d, N = 108, EFS) was 9. For the same compound, the “Cardiovascular disorder leading to drop-out, % of patients” value ([2]; 25 mg/d, N = 108, EFS) was “(0.0) %”, the “Cardiovascular disorder leading to drop-out, n (number of patients)” value ([2]; 25 mg/d, N = 108, EFS) was 0 and the “Depression leading to drop-out, % of patients” value ([2]; 25 mg/d, N = 108, EFS) was “(0.9) %”. The “Depression leading to drop-out, n (number of patients)” value (shortened to “Depression leading to drop-out, n”) ([2]; 25 mg/d, N = 108, EFS) was 1, the “Dizziness leading to drop-out, % of patients” value ([2]; 25 mg/d, N = 108, EFS) was “(1.9) %” and the “Dizziness leading to drop-out, n (number of patients)” value (“Dizziness leading to drop-out, n” for short) ([2]; 25 mg/d, N = 108, EFS) was 2. The “Fatigue leading to drop-out, % of patients” value ([2]; 25 mg/d, N = 108, EFS) was “(0.0) %”, the “Fatigue leading to drop-out, n (number of patients)” value (shortened to “Fatigue leading to drop-out, n”) ([2]; 25 mg/d, N = 108, EFS) was 0 and the “Headache leading to drop-out, % of patients” value ([2]; 25 mg/d, N = 108, EFS) was “(0.0) %”. The “Headache leading to drop-out, n (number of patients)” value (from here on “Headache leading to drop-out, n”) ([2]; 25 mg/d, N = 108, EFS) was 0, the “Hyperhidrosis leading to drop-out, % of patients” value ([2]; 25 mg/d, N = 108, EFS) was “(0.0) %” and the “Hyperhidrosis leading to drop-out, n (number of patients)” value (from here on “Hyperhidrosis leading to drop-out, n”) ([2]; 25 mg/d, N = 108, EFS) was 0. For the same compound, the “Nausea leading to drop-out, % of patients” value ([2]; 25 mg/d, N = 108, EFS) was “(0.0) %”, the “Nausea leading to drop-out, n (number of patients)” value (shortened to “Nausea leading to drop-out, n”) ([2]; 25 mg/d, N = 108, EFS) was 0 and the “Paresthesia leading to drop-out, % of patients” value ([2]; 25 mg/d, N = 108, EFS) was “(0.0) %”. The “Paresthesia leading to drop-out, n (number of patients)” value (“Paresthesia leading to drop-out, n” for short) ([2]; 25 mg/d, N = 108, EFS) was 0, the “Tinnitus leading to drop-out, % of patients” value ([2]; 25 mg/d, N = 108, EFS) was “(1.9) %” and the “Tinnitus leading to drop-out, n (number of patients)” value (“Tinnitus leading to drop-out, n” for short) ([2]; 25 mg/d, N = 108, EFS) was 2. For the same compound, the “Vertigo leading to drop-out, % of patients” value ([2]; 25 mg/d, N = 108, EFS) was “(0.0) %”, the “Vertigo leading to drop-out, n (number of patients)” value (from here on “Vertigo leading to drop-out, n”) ([2]; 25 mg/d, N = 108, EFS) was 0 and the “Visual acuity reduced leading to drop-out, % of patients” value ([2]; 25 mg/d, N = 108, EFS) was “(0.0) %”. The “Visual acuity reduced leading to drop-out, n (number of patients)” value ([2]; 25 mg/d, N = 108, EFS) was 0, the “Any adverse event leading to drop-out, % of patients” value ([2]; 50 mg/d, N = 107, EFS) was “(21.5) %” and the “Any adverse event leading to drop-out, n” value ([2]; 50 mg/d, N = 107, EFS) was 23. For the same compound, the “Cardiovascular disorder leading to drop-out, % of patients” value ([2]; 50 mg/d, N = 107, EFS) was “(1.9) %”, the “Cardiovascular disorder leading to drop-out, n (number of patients)” value ([2]; 50 mg/d, N = 107, EFS) was 2 and the “Depression leading to drop-out, % of patients” value ([2]; 50 mg/d, N = 107, EFS) was “(1.9) %”. The “Depression leading to drop-out, n” value ([2]; 50 mg/d, N = 107, EFS) was 2, the “Dizziness leading to drop-out, % of patients” value ([2]; 50 mg/d, N = 107, EFS) was “(5.6) %” and the “Dizziness leading to drop-out, n” value ([2]; 50 mg/d, N = 107, EFS) was 6. The “Fatigue leading to drop-out, % of patients” value ([2]; 50 mg/d, N = 107, EFS) was “(1.9) %”, the “Fatigue leading to drop-out, n” value ([2]; 50 mg/d, N = 107, EFS) was 2 and the “Headache leading to drop-out, % of patients” value ([2]; 50 mg/d, N = 107, EFS) was “(0.9) %”. The “Headache leading to drop-out, n” value ([2]; 50 mg/d, N = 107, EFS) was 1, the “Hyperhidrosis leading to drop-out, % of patients” value ([2]; 50 mg/d, N = 107, EFS) was “(0.0) %” and the “Hyperhidrosis leading to drop-out, n” value ([2]; 50 mg/d, N = 107, EFS) was 0. For the same compound, the “Nausea leading to drop-out, % of patients” value ([2]; 50 mg/d, N = 107, EFS) was “(1.9) %”, the “Nausea leading to drop-out, n” value ([2]; 50 mg/d, N = 107, EFS) was 2 and the “Paresthesia leading to drop-out, % of patients” value ([2]; 50 mg/d, N = 107, EFS) was “(1.9) %”. The “Paresthesia leading to drop-out, n” value ([2]; 50 mg/d, N = 107, EFS) was 2, the “Tinnitus leading to drop-out, % of patients” value ([2]; 50 mg/d, N = 107, EFS) was “(0.0) %” and the “Tinnitus leading to drop-out, n” value ([2]; 50 mg/d, N = 107, EFS) was 0. The “Vertigo leading to drop-out, % of patients” value ([2]; 50 mg/d, N = 107, EFS) was “(3.7) %”, the “Vertigo leading to drop-out, n” value ([2]; 50 mg/d, N = 107, EFS) was 4 and the “Visual acuity reduced leading to drop-out, % of patients” value ([2]; 50 mg/d, N = 107, EFS) was “(0.0) %”. For the same compound, the “Visual acuity reduced leading to drop-out, n (number of patients)” value ([2]; 50 mg/d, N = 107, EFS) was 0, the “Any adverse event leading to drop-out, % of patients” value ([2]; 75 mg/d, N = 102, EFS) was “(28.4) %” and the “Any adverse event leading to drop-out, n” value ([2]; 75 mg/d, N = 102, EFS) was 29. For the same compound, the “Cardiovascular disorder leading to drop-out, % of patients” value ([2]; 75 mg/d, N = 102, EFS) was “(0.0) %”, the “Cardiovascular disorder leading to drop-out, n (number of patients)” value ([2]; 75 mg/d, N = 102, EFS) was 0 and the “Depression leading to drop-out, % of patients” value ([2]; 75 mg/d, N = 102, EFS) was “(0.0) %”. For the same compound, the “Depression leading to drop-out, n” value ([2]; 75 mg/d, N = 102, EFS) was 0, the “Dizziness leading to drop-out, % of patients” value ([2]; 75 mg/d, N = 102, EFS) was “(14.7) %” and the “Dizziness leading to drop-out, n” value ([2]; 75 mg/d, N = 102, EFS) was 15. For the same compound, the “Fatigue leading to drop-out, % of patients” value ([2]; 75 mg/d, N = 102, EFS) was “(2.0) %”, the “Fatigue leading to drop-out, n” value ([2]; 75 mg/d, N = 102, EFS) was 2 and the “Headache leading to drop-out, % of patients” value ([2]; 75 mg/d, N = 102, EFS) was “(2.0) %”. The “Headache leading to drop-out, n” value ([2]; 75 mg/d, N = 102, EFS) was 2, the “Hyperhidrosis leading to drop-out, % of patients” value ([2]; 75 mg/d, N = 102, EFS) was “(2.0) %” and the “Hyperhidrosis leading to drop-out, n” value ([2]; 75 mg/d, N = 102, EFS) was 2. For the same compound, the “Nausea leading to drop-out, % of patients” value ([2]; 75 mg/d, N = 102, EFS) was “(2.0) %”, the “Nausea leading to drop-out, n” value ([2]; 75 mg/d, N = 102, EFS) was 2 and the “Paresthesia leading to drop-out, % of patients” value ([2]; 75 mg/d, N = 102, EFS) was “(0.0) %”. The “Paresthesia leading to drop-out, n” value ([2]; 75 mg/d, N = 102, EFS) was 0, the “Tinnitus leading to drop-out, % of patients” value ([2]; 75 mg/d, N = 102, EFS) was “(1.0) %” and the “Tinnitus leading to drop-out, n” value ([2]; 75 mg/d, N = 102, EFS) was 1. The “Vertigo leading to drop-out, % of patients” value ([2]; 75 mg/d, N = 102, EFS) was “(2.9) %”, the “Vertigo leading to drop-out, n” value ([2]; 75 mg/d, N = 102, EFS) was 3 and the “Visual acuity reduced leading to drop-out, % of patients” value ([2]; 75 mg/d, N = 102, EFS) was “(2.0) %”. For the same compound, the “Visual acuity reduced leading to drop-out, n (number of patients)” value ([2]; 75 mg/d, N = 102, EFS) was 2.
